Results as given in patent US20100190809A1, “COMBINATION FORMULATIONS” (priority 2007, published 2010).

Assay: Tablet dissolution in 0.01M HCl+1% sodium laurylsulfate, 50 rpm
Type: physicochemical
Protocol: The tablets were measured on dissolution in a medium of 0.01M HCl+1% sodium laurylsulfate (SLS), 50 rpm. The results reported in the following tables are the percentages of release drug substance. Exp 1, exp 2, etc. refer to a first, a second, etc. experiment under the same conditions.
Two coating trials were performed using the tablet core samples with a compression force of 1030 daN and 1266 daN. The coating material was polyvinyl alcohol (PVA). The film coated tablets were measured on dissolution in medium 0.01 M HCl+1% SLS, 50 rpm.

SMILES	impact of the coating on the release (PVA film coated tablets)	release out of the coated tablets compared to the cores (PVA film coated tablets)	influence of the compression force on dissolution (TMC125 compared with TMC114)
CC(C)CN(C[C@@H](O)[C@H](Cc1ccccc1)NC(=O)O[C@H]1CO[C@H]2OCC[C@H]21)S(=O)(=O)c1ccc(N)cc1 [TMC114, (1S,2R,3R,3aS,6aR)-{3-[(4-aminobenzenesulfonyl)isobutyl-amino]-1-benzyl-2-hydroxypropyl}carbamic acid hexahydrofuro[2,3-b]furan-3-yl ester monoethanolate]	only a minor impact		
Cc1cc(C#N)cc(C)c1Oc1nc(Nc2ccc(C#N)cc2)nc(N)c1Br [TMC125, 4-[[6-amino-5-bromo-2-[(4-cyanophenyl)amino]-4-pyrimidinyl]oxy]-3,5-dimethylbenzonitrile]		somewhat faster	more influenced
